Results from patent US20220054559A1, “COMPOSITIONS AND METHODS FOR ENHANCING EXERCISE ENDURANCE” (PRESIDENT AND FELLOWS OF HARVARD COLLEGE, priority 2019, published 2022).
“Also recorded” adds a separate entry of the source.

Tests used:
Assay type in all cases: in vivo, mouse
[1] = 13C3-lactate flux tracing after tail-vein injection (LC-MS)
Description: It was next determined whether systemic lactate is capable of crossing the epithelial barrier into the gut lumen. […] At sacrifice, serum and plasma were immediately collected following cardiac puncture, and intestinal luminal contents were collected by removing the colon and cecum from the mice and gently sampling the inner surface of the tissue.
20% w/w ^13C3 sodium lactate (Cambridge Isotope Laboratories™) was diluted with PBS to a concentration of 400 mM in PBS. […] […] […] Whole blood was divided into two samples to obtain both serum and plasma, which was flash frozen in liquid nitrogen and stored at −80° C.
Immediately following cardiac puncture, mice were dissected to remove colon and cecum, and the contents were removed by squeezing with sterilized forceps into pre-weighed tubes. Contents were immediately flash frozen in liquid nitrogen. […]
Samples were analyzed for lactate and propionate by a Metabolomics Platform. LC-MS metabolomics were performed as previously described. 23 LC-MS traces were identified and integrated to quantify presence of ^13C0- and ^13C3-lactate isotopes.

mice = test: Colorectal propionate instillation, treadmill run to exhaustion; conditions: 200 μL 150 mM sodium propionate in PBS into the colon 30 minutes prior to exercise, n=8, P=0.03
Description: (§1) Treadmilling followed the same protocol as above. Mice were fasted 7 hours prior to exercise, to normalize metabolic profiles. 30 minutes prior to exercise, mice were treated with 200 μL of either PBS vehicle alone (n=8) or 150 mM sodium propionate in PBS (n=8) using a flexible gavage needle to introduce 200 μL of solution into the colon. Mice were run to exhaustion as above. This protocol was repeated for 3 consecutive days. On the first day of treatment, serum was collected 40 minutes post-exhaustion via tail-vein bleed and measured using the Ciraplex™ multiplex mouse cytokine assay (Aushon BioSystems™)

inflammatory cytokines = test: Serum inflammatory cytokines after treadmill run, intrarectal propionate; conditions: serum taken 40 minutes after treadmill running, intrarectal propionate versus vehicle
Description: as §1

[2] = 100 μL of 400 mM intravenously via tail vein, sacrifice 12 minutes after injection, LC-MS

Row | earliest time at which serum lactate levels returned to baseline after tail-vein injection ([1]; tail-vein injection) [min] | Structure (SMILES) | 13C3-labelled lactate detected in tissues [1, 2] | 13C3-labelled propionate detected in tissues [1, 2] | treadmill runtime versus pH-matched placebo vehicle (mice) | serum inflammatory cytokine levels (inflammatory cytokines)
1 | 12 | [13CH3][13CH](O)[13C](=O)[O-].[Na+] (centres unmarked) [^13C3 sodium lactate] | present in both the serum and plasma as well as in the lumen of the colons and ceca | No ^13C3-labelled propionate was detected in these tissues | – | –
2 | – | CCC(=O)[O-].[Na+] [propionate, sodium propionate] | – | – | increased treadmill runtime; also recorded: improves maximum run time | no significant differences in cytokine levels were found
